Source: publication PMC9687610, “Adenosine-Mimicking Derivatives of 3-Aminopyrazine-2-Carboxamide: Towards Inhibitors of Prolyl-tRNA Synthetase with Antimycobacterial Activity” (Biomolecules, 2022)
In brackets after ≈: the same amount, converted by molar mass. Where two headings read alike, the source gives them in different places.

Experiments:
[1] = tested on: Mycobacterium tuberculosis H37Ra ITM-M006710 (ATCC 9431); test: Microplate Alamar Blue Assay (MABA), Mtb H37Ra; type: cell-based; settings: Mycobacterium tuberculosis, 120 h, pH 6.6, MABA, Middlebrook 7H9 broth pH 6.6, resazurin after 120 h; read-out: Mtb H37Ra MIC
[2] = tested on: Mycobacterium smegmatis DSM 43465 (ATCC 607); test: Microplate Alamar Blue Assay (MABA), M. smegmatis; type: cell-based; settings: Mycolicibacterium smegmatis, read-out: M. smegmatis MIC
[3] = tested on: M. aurum DSM 43999 (ATCC 23366); test: Microplate Alamar Blue Assay (MABA), M. aurum; type: cell-based; settings: Mycolicibacterium aurum, read-out: M. aurum MIC
[4] = tested on: Staphylococcus aureus subsp. aureus CCM 4223 (ATCC 29213); test: Antibacterial microdilution broth (EUCAST), SA; type: cell-based; settings: Staphylococcus aureus
[5] = tested on: Staphylococcus aureus subsp. aureus methicillin-resistant (MRSA) CCM 4750 (ATCC 43300); test: Antibacterial microdilution broth (EUCAST), MRSA; type: cell-based; settings: Staphylococcus aureus
[6] = tested on: Staphylococcus epidermidis CCM 4418 (ATCC 12228); test: Antibacterial microdilution broth (EUCAST), SE; type: cell-based
[7] = tested on: Enterococcus faecalis CCM 4224 (ATCC 29212); test: Antibacterial microdilution broth (EUCAST), EF; type: cell-based; settings: Enterococcus faecalis
[8] = tested on: Escherichia coli CCM 3954 (ATCC 25922); test: Antibacterial microdilution broth (EUCAST), EC; type: cell-based; settings: Escherichia coli
[9] = tested on: Acinetobacter baumannii DSM 30007 (ATCC 19606); test: Antibacterial microdilution broth (EUCAST), ACI; type: cell-based; settings: Acinetobacter baumannii
[10] = tested on: Pseudomonas aeruginosa CCM 3955 (ATCC 27853); test: Antibacterial microdilution broth (EUCAST), PA; type: cell-based; settings: Pseudomonas aeruginosa
[11] = tested on: Candida albicans CCM 8320 (ATCC 24433); test: Antifungal microdilution broth (EUCAST), CA; type: cell-based; settings: Candida albicans
[12] = tested on: Candida krusei CCM 8271 (ATCC 6258); test: Antifungal microdilution broth (EUCAST), CK; type: cell-based; settings: Pichia kudriavzevii
[13] = tested on: Candida parapsilosis CCM 8260 (ATCC 22019); test: Antifungal microdilution broth (EUCAST), CP; type: cell-based; settings: Lodderomyces parapsilosis
[14] = tested on: Candida tropicalis CCM 8264 (ATCC 750); test: Antifungal microdilution broth (EUCAST), CT; type: cell-based; settings: Candida tropicalis
[15] = tested on: Aspergillus fumigatus ATCC 204305; test: Antifungal microdilution broth (EUCAST), AF; type: cell-based; settings: Aspergillus fumigatus, ATCC204305
[16] = tested on: Aspergillus flavus CCM 8363; test: Antifungal microdilution broth (EUCAST), AFla; type: cell-based; settings: Aspergillus flavus, CCM8363
[17] = tested on: Lichtheimia corymbifera CCM 8077; test: Antifungal microdilution broth (EUCAST), LC; type: cell-based; settings: Lichtheimia corymbifera, CCM8077
[18] = tested on: Trichophyton interdigitale CCM 8377 (ATCC 9533); test: Antifungal microdilution broth (EUCAST), TI; type: cell-based; settings: Trichophyton interdigitale
[19] = tested on: HepG2 human hepatocellular carcinoma cells; test: In vitro HepG2 cytotoxicity (CellTiter 96); settings: for IC50: Homo sapiens, HepG2, 24 h, read-out: HepG2 IC50, 24 h incubation, * limit = highest evaluated concentration (precipitation in medium), ** over the 1000 µM limit
[20] = tested on: Klebsiella pneumoniae CCM 4415 (ATCC 10031); test: Antibacterial microdilution broth (EUCAST), KP; settings: for KP MIC: read after 24 h; for MIC: Klebsiella pneumoniae
[21] = read after 24 h, read-out: SA MIC
[22] = read after 24 h, read-out: MRSA MIC
[23] = read after 24 h, read-out: SE MIC
[24] = read after 24 h, read-out: EF MIC
[25] = read after 24 h, read-out: EC MIC
[26] = read after 24 h, read-out: ACI MIC
[27] = read after 24 h, read-out: PA MIC
[28] = read after 24 h, read-out: CA MIC
[29] = read after 24 h, read-out: CK MIC
[30] = read after 24 h, read-out: CP MIC
[31] = read after 24 h, read-out: CT MIC
[32] = read after 24 h, read-out: AF MIC
[33] = read after 24 h, read-out: AFla MIC
[34] = read after 24 h, read-out: LC MIC
[35] = internal quality control, 95% growth inhibition, 24 h, 530 nm, read-out: MIC, spectrophotometric detection
[36] = internal quality control, no visible growth, 24 h, read-out: MIC, visual detection
[37] = internal quality control, 50% growth inhibition, 24 h, 530 nm, read-out: MIC, spectrophotometric detection***
[38] = internal quality control, no visible growth, 24 h, read-out: MIC, visual detection**
[39] = internal quality control, 50% growth inhibition, 48 h (moulds), 530 nm, read-out: MIC, spectrophotometric detection***
[40] = internal quality control, no visible growth, 48 h (moulds), read-out: MIC, visual detection**
[41] = internal quality control, 90% growth inhibition, 24 h, 530 nm, read-out: MIC, spectrophotometric detection*
[42] = internal quality control, 90% growth inhibition, 48 h (moulds), 530 nm, read-out: MIC, spectrophotometric detection*

Structure (SMILES)	MIC [1]	MIC ([2]; MABA, resazurin after 48 h)	MIC ([3]; MABA, resazurin after 72 h)	MIC [4, 21]	MIC [5, 22]	MIC [6, 23]	MIC [7, 24]	MIC [8, 25]	MIC [9, 26]	MIC [10, 27]	MIC [11, 28]	MIC [12, 29]	MIC [13, 30]	MIC [14, 31]	MIC [15, 32]	MIC [16, 33]	MIC [17, 34]	MIC ([18]; 72 h, read-out: TI MIC)	IC50 [19]	KP MIC [20]	further results
NC(=O)c1nccnc1NC(=O)c1ccccc1Cl [Compound 13]	≥ 500 µg/mL	≥ 500 µg/mL	≥ 500 µg/mL	> 500 µM	> 500 µM	> 500 µM	> 500 µM	> 500 µM	> 500 µM	> 500 µM	> 500 µM	> 500 µM	> 500 µM	> 500 µM	> 500 µM	> 500 µM	> 500 µM	> 500 µM	> 250 µM	> 500 µM	
CNC(C)C1CCC(N)C(OC2C(N)CC(N)C(OC3OCC(C)(O)C(NC)C3O)C2O)O1 (stereo not shown) [gentamicin, reference compound]																					MIC [4, 35]: 1 µg/mL; MIC [4, 36]: 0.5 µg/mL; MIC [5, 35]: > 8 µg/mL; MIC [5, 36]: > 8 µg/mL; MIC [6, 35]: 0.125 µg/mL; MIC [6, 36]: 0.125 µg/mL; MIC [7, 35]: > 8 µg/mL; MIC [7, 36]: > 8 µg/mL; MIC [8, 35]: 1 µg/mL; MIC [8, 36]: 1 µg/mL; MIC [9, 35]: 8 µg/mL; MIC [9, 36]: 8 µg/mL; MIC [10, 35]: 0.5 µg/mL; MIC [10, 36]: 0.5 µg/mL; MIC ([20]; 24 h, read-out: MIC, visual detection): 0.5 µg/mL (≈ 1.05 µM); MIC ([20]; ATCC10031|CCM4415, 24 h, read-out: MIC, spectrophotometric detection): 0.5 µg/mL (≈ 1.05 µM)
C[C@@H](c1ncncc1F)[C@](O)(Cn1cncn1)c1ccc(F)cc1F [voriconazole, reference compound]																					MIC [11, 37]: 0.03 µg/mL; MIC [11, 38]: > 16 µg/mL; MIC [12, 37]: 0.25 µg/mL; MIC [12, 38]: > 16 µg/mL; MIC [13, 37]: 0.03 µg/mL; MIC [13, 38]: > 16 µg/mL; MIC [14, 37]: 0.0625 µg/mL; MIC [14, 38]: > 16 µg/mL; MIC [15, 39]: 0.25 µg/mL; MIC [15, 40]: 1 µg/mL; MIC [16, 39]: 1 µg/mL; MIC [16, 40]: > 16 µg/mL; MIC [17, 39]: > 16 µg/mL; MIC [17, 40]: > 16 µg/mL; MIC [18, 39]: > 16 µg/mL; MIC [18, 40]: > 16 µg/mL
NC(=O)c1nccnc1NC(=O)C12CC3CC(CC(C3)C1)C2 [Compound 28]	31.2 µg/mL (≈ 104 µM)	125 µg/mL (≈ 416 µM)	125 µg/mL (≈ 416 µM)	> 500 µM	> 500 µM	> 500 µM	> 500 µM	> 500 µM	> 500 µM	> 500 µM	500 µM	500 µM	> 500 µM	> 500 µM	> 500 µM	> 500 µM	> 500 µM	125 µM	367 µM	> 500 µM	
O=C(NC1Cc2ccccc2C1)c1nccnc1NC(=O)C1CCCCC1 [Compound 38, reference compound]	62.5 µg/mL (≈ 171 µM)	≥ 500 µg/mL	≥ 500 µg/mL																19.6 µM		
NC(=O)c1nccnc1NC(=O)c1cccc(Cl)c1 [Compound 14]	≥ 125 µg/mL			> 125 µM	> 125 µM	> 125 µM	> 125 µM	> 125 µM	> 125 µM	> 125 µM	> 125 µM	> 125 µM	> 125 µM	> 125 µM	> 125 µM	> 125 µM	> 125 µM	> 125 µM	> 25 µM	> 125 µM	MIC ([2]; 48 h): ≥ 125 µg/mL; MIC ([3]; 72 h): ≥ 125 µg/mL; solubility in the testing medium (in words) ([19]; HepG2 cell culture medium): low solubility
C[C@@H]1[C@H](O)[C@@H](C)/C=C/C=C/C=C/C=C/C=C/C=C/C=C/[C@H](O[C@@H]2O[C@H](C)[C@@H](O)[C@H](N)[C@@H]2O)C[C@@H]2O[C@](O)(C[C@@H](O)C[C@@H](O)[C@H](O)CC[C@@H](O)C[C@@H](O)CC(=O)O[C@H]1C)C[C@H](O)[C@H]2C(=O)O [amphotericin B, reference compound]																					MIC [11, 41]: 0.5 µg/mL; MIC [11, 38]: 0.5 µg/mL; MIC [12, 41]: 0.5 µg/mL; MIC [12, 38]: 0.5 µg/mL; MIC [13, 41]: 0.5 µg/mL; MIC [13, 38]: 0.5 µg/mL; MIC [14, 41]: 1 µg/mL; MIC [14, 38]: 1 µg/mL; MIC [15, 42]: 1 µg/mL; MIC [15, 40]: 1 µg/mL; MIC [16, 42]: 4 µg/mL; MIC [16, 40]: 4 µg/mL; MIC [17, 42]: 0.125 µg/mL; MIC [17, 40]: 0.125 µg/mL; MIC [18, 42]: 1 µg/mL; MIC [18, 40]: 1 µg/mL
NC(=O)c1nccnc1NC(=O)c1ccccc1 [Compound 1]	250 µg/mL (≈ 1030 µM)	≥ 500 µg/mL	≥ 500 µg/mL	> 500 µM	> 500 µM	> 500 µM	> 500 µM	> 500 µM	> 500 µM	> 500 µM	> 500 µM	> 500 µM	> 500 µM	> 500 µM	> 500 µM	> 500 µM	> 500 µM	> 500 µM	> 250 µM	> 500 µM	
